Assay results: patent EP1383793B1 (priority 2000, dated 2001)
Residues, ends and D or L forms follow the SMILES beside them. *: point of attachment. Biotin = O=C1N[C@H]2[C@H](CS[C@H]2CCCCC(=O)*)N1

Experiments:
IR [1] = target: T1, IR (Homo sapiens, UniProt P06213); assay: Phage ELISA, binding of phage-displayed peptides to IR; details: for Absorbance Values IR: 405 nm
T1 construct: composed of the extracellular domains of both the α and β chains of the natural receptor; made in house; background b13 names human embryonic kidney 293 cells for the Bass et al. construct
Experimental: Amino acid sequences comprising the motif of Formulas 1 through 10. […] Fifty microliters of this solution was added to an appropriate number of wells in a 96-well microtiter plate (MaxiSorp plates, Nunc) and incubated overnight at 4°C. […] To isolate specific binders, each library was panned against a soluble form of the human IR. This IR is composed of the extracellular domains of both the α and β chains of the natural receptor, as well as the constant domain from immunoglobulin Fc, retaining the β-α-α-β structure described above. Because the IR is expressed in a eukaryotic system, disulfide bond formation and glycosylation patterns should mimic the wild-type receptor. The details of this recombinant protein construct are described in Bass et al. (1996). Phage ELISA. […] The wells were blocked with 200 µl of MPBS for 1.5 h at RT. […] Peptides were added as noted below and allowed to incubate at RT for 3 h. The plates were washed 3 times with PBST. A solution of 1:3000 diluted HRP:Anti-M13 conjugate at 100 µl per well of was added for 1 h. Following a repeat of the washing, 100 µl of ABTS was added for 15-30 min. […] Phage ELISA. […] Peptides were added as noted below and allowed to incubate at RT for 3 h. […] A solution of 1:3000 diluted HRP:Anti-M13 Conjugate at 100 µl per well of was added for 1 h. Following a repeat of the washing, 100 µl of ABTS was added for 15-30 min. The OD405 was measured using a SpectraMax 340 Microplate Spectrophotometer.

adipocytes = assay: 3H-glucose uptake into adipocytes (fat cell assay, FFC); assay type: cell-based, Mouse; parameters: key to Resp.: -2 (antagonist); +2 (agonist); details: for ED50: Estimated, not calculated values; for Resp.: Subjective ranking, basal and sub maximal insulin, includes series A
IR [2] = target: T1, IR; assay: Phage ELISA, competition of phage binding by soluble synthetic peptides, IR-coated wells; details: Insulin Receptor
Experimental: (§1) Peptide Competition. […] Twenty microliters of the stock synthetic-peptide solution was added to Row A. A series of 20 µl into 100 µl dilutions were performed until Row G. Twenty microliters were discarded from Row G to maintain 100 µl per well. Row H was reserved as no peptide wells. […] The volume was maintained by the addition of 18 µl of the phage solution to Row A.
(§2) Phage ELISA. […] The wells were blocked with 200 µl of 2% (w/v) Carnation non-fat dry milk in PBS for 1.5 h at RT. Phage were added at 100 µl per well. Peptides were added as noted below and allowed to incubate at RT for 3 h. The plates were washed 3X with PBST. A solution of 1:3000 diluted HRP:Anti-M13 Conjugate at 100 µl per well of was added for 1 h. Following a repeat of the washing, 100 µl of ABTS was added for 15-30 min. The OD405 was measured using a SpectraMax 340 Microplate Spectrophotometer.
(§3) Peptide Competition. Peptide Competition Curves were produced during the phage ELISA across rows in triplicate. The stock synthetic peptide solution was added to Column 12 so that the total volume totaled 150 µl (additional phage solution was added when necessary). A serial dilution was made by transferring 50 µl from Column 12 into 100 µl in Column 11, 50 µl from Column 11 into 100 µl in Column 10, and continuing the serial dilution until Column 2. Fifty microliters were discarded from Column 2 to maintain 100 µl per well. Column 1 was reserved as no peptide wells.
(§4) A p53-like peptide that binds to MDM2 was used as a negative control.

IGF-1R [3] = target: T2, IGF-1R (Homo sapiens, UniProt P08069); assay: Phage ELISA, competition of phage binding by soluble synthetic peptides, IGF-1R-coated wells; details: IGF Receptor, H2 Phage
T2 construct: Soluble IGF-1R was obtained from R&D Systems; purchased R&D Systems 391-GR/CF
Experimental: as §1, §2, §3, §4

Insulin receptor = target: T3, Insulin receptor (Homo sapiens, UniProt P06213); assay: BIAcore competition: IR pre-incubated with test substance, injected over immobilised insulin; assay type: binding; details: peptide about 40 µM, IR 450 nM
T3 construct: composed of the extracellular domains of both the α and β chains of the natural receptor; made in house; background b13 names human embryonic kidney 293 cells for the Bass et al. construct
Experimental: Flowcell-1 was used for background binding to correct for any non-specific binding. […] The surface was regenerated with 25 mM NaOH. […] Thus, the system was validated for competition studies. […] The amino acid sequences referred to in the tables are identified in Figures 47 and 48, except the 447 and 2A9 sequences, which are shown below. TABLE 9: BIAcore Results-Fusion Proteins Compete for Binding to IR

[4] = Precipitate in diluted peptide stock prior to adding to the fat cell assay; solubility under assay conditions; assay type: physicochemical; details: diluted stock prior to adding to assay
[5] = target: human IGF-1 receptor (HIGF-1R) (Homo sapiens, UniProt P08069); assay: 125I-IGF-1 competition binding assay on solubilised purified receptor; details: for Ratio: Kd HIGF1R / Kd HIR
IGF-1R [6] = target: T2, IGF-1R; assay: Phage ELISA, binding of phage-displayed peptides to IGF-1R; details: 405 nm
Experimental: Figures 1A-10G. Amino acid sequences comprising the motif of Formulas 1 through 10. […] One hundred microliters of this solution was added to an appropriate number of wells in a 96-well microtiter plate (MaxiSorp plates, Nunc) and incubated overnight at 4°C. […] Subsequent steps are the same for pooled and clonal phage. […] Phage resuspended in MPBS were added to duplicate wells (100 µl/well) and incubated at RT for 1 h. […] Incubation was for 1 h at RT, followed by PBS washes as described. […] Phage ELISA. […] The wells were blocked with 200 µl of MPBS for 1.5 h at RT. Phage were added at 100 µl per well. Peptides were added as noted below and allowed to incubate at RT for 3 h. The plates were washed 3 times with PBST. A solution of 1:3000 diluted HRP:Anti-M13 conjugate at 100 µl per well of was added for 1 h. Following a repeat of the washing, 100 µl of ABTS was added for 15-30 min. […] Phage ELISA. […] Phage were added at 100 µl per well. Peptides were added as noted below and allowed to incubate at RT for 3 h. The plates were washed 3X with PBST. A solution of 1:3000 diluted HRP:Anti-M13 Conjugate at 100 µl per well of was added for 1 h. Following a repeat of the washing, 100 µl of ABTS was added for 15-30 min. The OD405 was measured using a SpectraMax 340 Microplate Spectrophotometer.

[7] = target: T4, human insulin receptor (HIR) (Homo sapiens, UniProt P06213); assay: 125I-insulin competition binding assay on solubilised purified receptor; details: read-out: Kd (µM) HIR
T4 construct: made in house

Compound	Comments (dose response, effect at basal insulin) (adipocytes)	ED50 (adipocytes)	Resp. (adipocytes)	Ratio [5]	Absorbance Values sIGF-1R (IGF-1R [6])	Absorbance Values IR (IR [1])	other results
CC(C)[C@H](NC(=O)[C@H](C)NC(=O)[C@H](CO)NC(=O)[C@@H](NC(=O)[C@H](Cc1ccccc1)NC(=O)[C@@H](NC(=O)[C@@H](NC(=O)[C@H](CC(=O)O)NC(=O)[C@H](CCCCN)NC(=O)[C@H](Cc1ccc(O)cc1)NC(=O)[C@@H](N)CC(=O)O)C(C)C)[C@@H](C)O)[C@@H](C)O)C(=O)N[C@@H](Cc1ccccc1)C(=O)N[C@@H](Cc1c[nH]cn1)C(=O)N[C@@H](CCC(=O)O)C(=O)N[C@@H](CC(N)=O)C(=O)N[C@@H](Cc1ccccc1)C(=O)N[C@@H](Cc1ccc(O)cc1)C(=O)N[C@@H](CC(=O)O)C(=O)N[C@@H](Cc1c[nH]c2ccccc12)C(=O)N[C@@H](Cc1ccccc1)C(=O)N[C@H](C(=O)N[C@@H](CCCNC(=N)N)C(=O)N[C@@H](CCC(N)=O)C(=O)N[C@H](C(=O)N[C@@H](CO)C(=O)N[C@@H](CCCCN)C(=O)N[C@@H](CCCCNC(=O)CCCC[C@@H]1SC[C@@H]2NC(=O)N[C@@H]21)C(N)=O)C(C)C)C(C)C [Clone H2]	Some response at basal insulin	Approx 20 µM	+2	7.2	–	–	binding to IR when expressed as phage (IR [1]): detectable binding; ED50 in the effect assay (FFC) (adipocytes; best peptides, agonists): 20 to 30 µM; n (Hill plot) (IR [2]; 20D3 Phage): 1.07; n (Hill plot) (IR [2]; H2 Phage): 0.71; n (Hill plot) (IGF-1R [3]): 1.21; Result (RUs) (Insulin receptor; IR alone 128 RU): 34.6 RUs; Comments (precipitation) [4]: Insoluble, especially after freeze-thaw
KSMFVAGSDRWPGYGVLADWLKK [Clone F2]	–	–	–	–	2.08	1.43	–
CC(C)C[C@H](NC(=O)CNC(=O)[C@H](CC(N)=O)NC(=O)[C@H](Cc1ccc(O)cc1)NC(=O)[C@H](Cc1ccccc1)NC(=O)[C@H](C)NC(=O)[C@H](CCCNC(=N)N)NC(=O)[C@H](CC(=O)O)NC(=O)[C@@H](N)CCCCN)C(=O)N[C@@H](CCCNC(=N)N)C(=O)N[C@@H](CC(=O)O)C(=O)N[C@@H](CC(C)C)C(=O)N[C@H](C(=O)NCC(=O)N[C@@H](C)C(=O)N[C@H](C(=O)N[C@@H](Cc1ccc(O)cc1)C(=O)NCC(=O)N[C@@H](C)C(=O)N[C@@H](Cc1c[nH]c2ccccc12)C(=O)N[C@@H](CC(=O)O)C(=O)N[C@@H](CCCCN)C(=O)N[C@@H](CCCCNC(=O)CCCC[C@@H]1SC[C@@H]2NC(=O)N[C@@H]21)C(N)=O)C(C)C)C(C)C [Clone 20C11] (H-KDRAFYNGLRDLVGAVYGAWDKK(Biotin)-NH2)	–	–	–	–	–	–	Kd [7]: 4.5 µM; % Binding (Insulin receptor): 38%; Kd [5]: 13 µM
CC[C@H](C)[C@H](NC(=O)[C@H](C)NC(=O)[C@H](CC(=O)O)NC(=O)[C@H](Cc1ccc(O)cc1)NC(=O)[C@H](Cc1ccccc1)NC(=O)[C@H](CC(=O)O)NC(=O)[C@H](CCCCN)NC(=O)[C@H](Cc1ccc(O)cc1)NC(=O)[C@@H](N)CC(=O)O)C(=O)N[C@@H](CC(=O)O)C(=O)N[C@@H](CCC(N)=O)C(=O)N[C@@H](CC(C)C)C(=O)N[C@H](C(=O)N[C@@H](CCCNC(=N)N)C(=O)NCC(=O)N[C@@H](CO)C(=O)N[C@@H](C)C(=O)N[C@@H](CCCNC(=N)N)C(=O)N[C@@H](C)C(=O)NCC(=O)NCC(=O)N[C@H](C(=O)N[C@@H](CCCNC(=N)N)C(=O)N[C@@H](CC(=O)O)C(=O)N[C@@H](CCCCN)C(=O)N[C@@H](CCCCNC(=O)CCCC[C@@H]1SC[C@@H]2NC(=O)N[C@@H]21)C(N)=O)[C@@H](C)O)C(C)C [Clone 20E2] (H-DYKDFYDAIDQLVRGSARAGGTRDKK(Biotin)-NH2; N-terminus assumed)	Biphasic dose response curve (needs repeating)	Approx 20 µM	+2	–	2.15	1.01	–
CSCC[C@H](NC(=O)[C@@H](NC(=O)[C@H](CO)NC(=O)[C@H](CC(C)C)NC(=O)[C@H](CC(C)C)NC(=O)[C@H](C)NC(=O)[C@H](CO)NC(=O)[C@H](Cc1c[nH]c2ccccc12)NC(=O)[C@@H](N)CCCCN)C(C)C)C(=O)N[C@@H](CC(=O)O)C(=O)N[C@H](C(=O)NCC(=O)N[C@@H](Cc1ccccc1)C(=O)N[C@@H](Cc1ccc(O)cc1)C(=O)N[C@@H](C)C(=O)N[C@@H](Cc1c[nH]c2ccccc12)C(=O)N[C@@H](Cc1ccccc1)C(=O)N[C@@H](CC(=O)O)C(=O)N[C@@H](CC(=O)O)C(=O)N[C@@H](C)C(=O)N[C@H](C(=O)N[C@@H](CCCCN)C(=O)N[C@@H](CCCCNC(=O)CCCC[C@@H]1SC[C@@H]2NC(=O)N[C@@H]21)C(N)=O)C(C)C)[C@@H](C)O [Clone B8] (H-KWSALLSVMDTGFYAWFDDAVKK(Biotin)-NH2; N-terminus assumed)	–	–	0	20	2.55	1.30	–
